Molecules are shown by their SMILES.

We go through 1 compound from US20260167641A1, “CRYSTAL FORM OF IMIDAZOPYRAZINE DERIVATIVE, PREPARATION METHOD THEREFOR AND USE THEREOF” (TRANSTHERA SCIENCES (NANJING), INC., priority 2022, published 2026).

Series [1] in a line: Pharmacokinetic evaluation test in rats. Type of series: in vivo, SD rats. To be noted: p.o. 100 mg/kg. On the procedure: • Animals: male SD rats • Animal administration and sample collection: Crystal forms I, II, and III were each dissolved in a mixture of 20% PEG400+80% (20% Captisol in 0.5% MC) to prepare administration formulation suspensions. The administration formulations were intragastrically administered to the SD rats at a dose of 100 mg/kg. Blood samples were collected at time points of 15 min, 30 min, 1 h, 2 h, 4 h, 6 h, 8 h, 24 h, 48 h, 72 h, and […] after administration.
One day before administration, the animals underwent jugular vein catheterization. After administration, about 300 μL of blood samples were collected via the jugular vein and then placed into anticoagulation tubes containing EDTA-K2. The blood samples were centrifuged at 4° C. and 8000 rpm for 10 min to yield plasma samples, which were prepared within 30 min after blood sample collection. The plasma samples were stored in a refrigerator at −80° C. before tests.
The samples to be tested were taken out from the refrigerator at −80° C., naturally thawed at room temperature, and then vortexed for 5 min. 20 μL of each of the 20-fold diluted plasma samples was precisely pipetted into a 1.5 mL centrifuge tube, and 300 μL of an internal standard working solution at a concentration of 10 ng/mL was added. The mixture was uniformly mixed, vortexed for 5 min, and then centrifuged at 12000 rpm for 5 mun.
50 μL of the supernatant was precisely pipetted into a 96-well plate to which water was added at 150 μL/well in advance, uniformly mixed by vortexing for 5 min, and analyzed by LC-MS/MS.
The sample to be tested was taken out from the refrigerator at −80° C., naturally thawed at room temperature, and then vortexed for 5 min. 2 μL of the plasma sample was precisely pipetted and then added, together with 28 μL of blank plasma, to a 1.5 mL centrifuge tube, and 450 μL of an internal standard working solution (a solution of tolbutamide in acetonitrile) at a concentration of 100 ng/mL was added. The mixture was uniformly mixed, vortexed for 5 min, and then centrifuged at 12000 rpm for 5 min. 50 μL of the supernatant was precisely pipetted into a 96-well plate to which water was added at 150 μL/well in advance, uniformly mixed by vortexing for 5 min, and analyzed by LC-MS/MS.
The test compound concentrations were output by Analyst 1.7.1 of AB Sciex. Parameters such as mean, standard deviation, and coefficient of variation were calculated by Microsoft Excel. PK parameters were calculated by Pharsight Phoenix 8.2 software NCA (Tmax was in median).

Series [2] in a line: Stability evaluation under influencing factors. Format: physicochemical. On the procedure:
Appropriate amounts of crystal forms I, II. III, and the compound of formula (I) were taken and exposed to conditions of 60° C., RH (relative humidity) 92.5%, RH (relative humidity) 75%, and light, respectively. The samples were collected on day 30, and the purity of the samples and changes in XRPD were examined according to the 2020 edition of the Chinese Pharmacopoeia.

[3] abbreviates: male SD rats, mean, n = 3, 100 mg/kg.

In general, Cmax refers to the maximum level reached in the sampled fluid or tissue. In general, Tmax refers to the time at which the peak concentration occurs. `Nc1nccn2c(C34CCC(NC(=O)CN5CCOCC5)(CC3)C4)nc(-c3ccc(C(=O)Nc4cc(C(F)(F)F)ccn4)cc3)c12` (single isomer, unassigned) [Crystal form II, 4-(8-amino-3-(4-(2-morpholinoacetamido)bicyclo[2.2.1]heptan-1-yl)imidazo[1,5-a]pyrazin-1-yl)-N-(4-(trifluoromethyl)pyridin-2-yl)benzamide]: in series [1] (SD rats), the Pharmacokinetic properties entry was “very good pharmacokinetic properties”. In series [1] (setting [3]), the “AUCinf—obs” value was 2545.383 µg·h/mL. Further, the AUClast in series [1] (setting [3]) worked out at 2515.536 µg·h/mL. The Cmax in series [1] (male, SD, rat, plasma, po, 100 mg/kg, male SD rats, mean, n = 3, read-out: Cmax) was determined as 145 µg/mL. In series [1] (male, SD, rat, plasma, po, 100 mg/kg, male SD rats, mean, n = 3, read-out: tz1/2 (terminal half-life) (converted)), the half-life is 7.74 h. Further, in series [1] (male, SD, rat, plasma, po, 100 mg/kg, male SD rats, n = 3, Tmax in median, read-out: Tmax), the Tmax was found to be 2 h. Besides, the Purity % is recorded as 99.3% in series [2] (0 day); 99.3% in series [2] (60° C., 30 days); 98.8% in series [2] (Light exposure, 30 days); 99.3% in series [2] (RH 75%, 30 days); 99.3% in series [2] (RH 92.5%, 30 days). For the same compound, the “Crystal form identification (XRPD)” value in series [2] (60° C., 30 days) is on record as “Consistent with day 0”; in series [2] (Light exposure, 30 days), “Consistent with day 0”; in series [2] (RH 75%, 30 days), “Consistent with day 0”; in series [2] (RH 92.5%, 30 days), “Consistent with day 0”. Besides, the “Change of crystal form (XRPD pattern)” value in series [2] (all influencing factor conditions, 30 days) is recorded as “no changes in the crystal forms occurred”. Further, the “Stability compared to the amorphous form” value in series [2] (influencing factors, 30 days) is recorded as “higher stability”. The Purity decrease in series [2] (light exposure, 30 days vs day 0) is given as 0.5%.
